Among the data in US20120295845A1, “IMIDAZO-PYRAZOLES AS GPR119 INHIBITORS” (Pfizer Inc, priority 2009, published 2012) are Ki values, retold here.

SMILES strings stand for the structures. Values joined by “and” are separate entries in the source; they are usually repeats but may differ in a detail not shown here. Identical values can stand only once.

The target in this assay is T1, human GPR119 (Homo sapiens, UniProt Q8TDV5).
T1 construct: host or cells: HEK293-CRE beta-lactamase cells
T1 sequence (Q8TDV5 1-335): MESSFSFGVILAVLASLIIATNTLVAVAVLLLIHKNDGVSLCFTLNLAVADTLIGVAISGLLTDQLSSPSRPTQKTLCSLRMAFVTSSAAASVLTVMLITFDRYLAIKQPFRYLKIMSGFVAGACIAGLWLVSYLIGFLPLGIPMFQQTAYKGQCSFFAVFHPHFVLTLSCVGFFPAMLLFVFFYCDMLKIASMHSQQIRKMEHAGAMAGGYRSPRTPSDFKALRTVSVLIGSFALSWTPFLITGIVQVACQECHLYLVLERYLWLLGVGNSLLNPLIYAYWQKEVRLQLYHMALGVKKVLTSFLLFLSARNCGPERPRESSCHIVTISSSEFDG
Nature of the assay: GPR119 radioligand binding assay ([3H]-Compound A or [3H]-Compound B, membranes of HEK 293FT cells expressing hGPR119). Particulars: Ki calculated from IC50 by the Cheng-Prusoff equation; one value per run. On the procedure: HEK 293FT cells (Invitrogen, Carlsbad, Calif.) were grown in a shake flask in 293Freestyle medium (Invitrogen) supplemented with 50 microg/mL neomycin and 10 mM HEPES (37C, 8% carbon dioxide, shaking). The cells were centrifuged gently (approximately 500×g, 10 minutes) and the pellet resuspended in a mixture of Dulbecco's PBS (minus Mg++/Ca++) supplemented with 18% fetal bovine serum (Sigma Aldrich) and P1 virus such that the multiplicity of infection (MOI) was 10 and the final cell density was 1.3×10^6/mL (total volume 2.5 liters). The cells were transferred to a 5 liter Wave Bioreactor Wavebag (Wave Technologies, Mass.) and incubated for 4 hours at 27 degrees Celsius (17 rocks/min, 7 degrees platform angle); at the end of the incubation period, an equal volume (2.5 liters) of 293Freestyle medium supplemented with 30 mM sodium butyrate (Sigma Aldrich) was added (final concentration=15 mM), and the cells were grown for 20 hours (37 degrees Celsius, 8% CO2 [0.2 liters/min}, 25 rocks/minute, 7 degrees platform angle). Cells were harvested via centrifugation (3,000×g, 10 minutes), washed once on DPBS (minus Ca++/Mg++), resuspended in 0.25M sucrose, 25 mM HEPES, 0.5 mM EDTA, pH 7.4 and frozen at −80 degrees Celsius.
The frozen cells were thawed on ice and centrifuged at 700×g (1400 rpm) for 10 minutes at 4 degrees Celsius. The cell pellet was resuspended in 20 mL phosphate-buffered saline, and centrifuged at 1400 rpm for 10 minutes. The cell pellet was then resuspended in homogenization buffer (10 mM HEPES (Gibco #15630), pH 7.5, 1 mM EDTA (BioSolutions, #BIO260-15), 1 mM EGTA (Sigma, #E-4378), 0.01 mg/mL benzamidine (Sigma #B 6506), 0.01 mg/mL bacitracin (Sigma #B 0125), 0.005 mg/mL leupeptin (Sigma #L 8511), 0.005 mg/mL aprotinin (Sigma #A 1153)) and incubated on ice for 10 minutes. Cells were then lysed with 15 gentle strokes of a tight-fitting glass Dounce homogenizer. The homogenate was centrifuged at 1000×g (2200 rpm) for 10 minutes at 4 degrees Celsius. The supernatant was transferred into fresh centrifuge tubes on ice. The cell pellet was resuspended in homogenization buffer, and centrifuged again at 1000×g (2200 rpm) for 10 minutes at 4 degrees Celsius after which the supernatant was removed and the pellet resuspended in homogenization buffer. This process was repeated a third time, after which the supernatants were combined, Benzonase (Novagen # 71206) and MgC12 (Fluka #63020) were added to final concentrations of 1 U/mL and 6 mM, respectively, and incubated on ice for one hour. The solution was then centrifuged at 25,000×g (15000 rpm) for 20 minutes at 4 degrees Celsius, the supernatant was discarded, and the pellet was resuspended in fresh homogenization buffer (minus Benzonase and MgCl2). After repeating the 25,000×g centrifugation step, the final membrane pellet was resuspended in homogenization buffer and frozen at −80 degrees Celsius. The protein concentration was determined using the Pierce BCA protein assay kit (Pierce reagents A #23223 and B #23224).
Test compounds were serially diluted in 100% DMSO (J. T. Baker #922401). 2 microL of each dilution was added to appropriate wells of a 96-well plate (each concentration in triplicate). Unlabeled Compound A (or Compound B), at a final concentration of 10 microM, was used to determine non-specific binding. [^3H]-Compound A (or [^3H]-Compound B) was diluted in binding buffer (50 mM Tris-HCl, pH 7.5, (Sigma #T7443), 10 mM MgCl2 (Fluka 63020), 1 mM EDTA (BioSolutions #BIO260-15), 0.15% bovine serum albumin (Sigma #A7511), 0.01 mg/mL benzamidine (Sigma #B 6506), 0.01 mg/mL bacitracin (Sigma #B 0125), 0.005 mg/mL leupeptin (Sigma #L 8511), 0.005 mg/mL aprotinin (Sigma #A 1153)) to a concentration of 60 nM, and 100 microL added to all wells of 96-well plate (Nalge Nunc # 267245). Membranes expressing GPR119 were thawed and diluted to a final concentration of 20 μg/100 microL per well in Binding Buffer, and 100 microL of diluted membranes were added to each well of 96-well plate. […]

Broadly, the Ki is a measure of affinity in units of concentration, obtained from inhibition or displacement. Turning to `Cc1c(O[C@H]2CCN(C(=O)OC(C)C)C[C@H]2F)ncnc1N1CCn2nccc21` (racemic) [Example 4, Isopropyl (3R,4S)-4-{[6-(2,3-dihydro-1H-imidazo[1,2-b]pyrazol-1-yl)-5-methylpyrimidin-4-yl]oxy}-3-fluoropiperidine-1-carboxylate (racemic)], the Ki was 140 nM. With `Cc1c(OC2CCN(C(=O)OC(C)C)CC2)ncnc1N1CCn2nccc21` [Example 1, Isopropyl 4-{[6-(2,3-dihydro-1H-imidazo[1,2-b]pyrazol-1-yl)-5-methylpyrimidin-4-yl]oxy}piperidine-1-carboxylate] the figure was 514 nM and 442 nM and 446 nM and 524 nM; with `Cc1c(O[C@H]2CCN(C(=O)OC3(C)CC3)C[C@H]2F)ncnc1N1CCn2nccc21` (single isomer, unassigned) [Example 6], 69 nM and 295 nM and 186 nM and 133 nM and 101 nM and 67 nM and 80 nM. The same measure for `Cc1c(OC2CCN(C(=O)OC3(C)CC3)CC2)ncnc1N1CCn2nccc21` [Example 2, 1-Methylcyclopropyl 4-{[6-(2,3-dihydro-1H-imidazo[1,2-b]pyrazol-1-yl)-5-methylpyrimidin-4-yl]oxy}piperidine-1-carboxylate]: 305 nM; for `Cc1c(O[C@@H]2CCN(C(=O)OC3(C)CC3)C[C@@H]2F)ncnc1N1CCn2nccc21` (single isomer, unassigned) [Example 5]: 57 nM and 38 nM and 50 nM and 64 nM and 44 nM and 13 nM and 42 nM and 104 nM and 46 nM; for `Cc1c(O[C@H]2CCN(C(=O)OC3(C)CC3)C[C@H]2F)ncnc1N1CCn2nccc21` (racemic) [Example 3, 1-Methylcyclopropyl (3R,4S)-4-{[6-(2,3-dihydro-1H-imidazo[1,2-b]pyrazol-1-yl)-5-methylpyrimidin-4-yl]oxy}-3-fluoropiperidine-1-carboxylate (racemic)]: 74 nM and 83 nM and 85 nM and 97 nM and 71 nM and 34 nM and 50 nM.
